Data from ChEMBL document CHEMBL1148542, “Synthesis of a novel biotin-tagged photoaffinity probe for VEGF receptor tyrosine kinases” (Bioorg Med Chem Lett, 2006).

Columns and labels:
[1] = molecular target: Vascular endothelial growth factor receptor 2 (Homo sapiens, UniProt P35968); assay: Inhibitory activity against VEGFR2 kinase
[2] = molecular target: Vascular endothelial growth factor receptor (Homo sapiens, UniProt P17948+P35916+P35968); assay: Inhibitory activity against VEGF-stimulated proliferation in HUVEC; format: functional

Sequence of Vascular endothelial growth factor receptor 2 (P35968 whole entry): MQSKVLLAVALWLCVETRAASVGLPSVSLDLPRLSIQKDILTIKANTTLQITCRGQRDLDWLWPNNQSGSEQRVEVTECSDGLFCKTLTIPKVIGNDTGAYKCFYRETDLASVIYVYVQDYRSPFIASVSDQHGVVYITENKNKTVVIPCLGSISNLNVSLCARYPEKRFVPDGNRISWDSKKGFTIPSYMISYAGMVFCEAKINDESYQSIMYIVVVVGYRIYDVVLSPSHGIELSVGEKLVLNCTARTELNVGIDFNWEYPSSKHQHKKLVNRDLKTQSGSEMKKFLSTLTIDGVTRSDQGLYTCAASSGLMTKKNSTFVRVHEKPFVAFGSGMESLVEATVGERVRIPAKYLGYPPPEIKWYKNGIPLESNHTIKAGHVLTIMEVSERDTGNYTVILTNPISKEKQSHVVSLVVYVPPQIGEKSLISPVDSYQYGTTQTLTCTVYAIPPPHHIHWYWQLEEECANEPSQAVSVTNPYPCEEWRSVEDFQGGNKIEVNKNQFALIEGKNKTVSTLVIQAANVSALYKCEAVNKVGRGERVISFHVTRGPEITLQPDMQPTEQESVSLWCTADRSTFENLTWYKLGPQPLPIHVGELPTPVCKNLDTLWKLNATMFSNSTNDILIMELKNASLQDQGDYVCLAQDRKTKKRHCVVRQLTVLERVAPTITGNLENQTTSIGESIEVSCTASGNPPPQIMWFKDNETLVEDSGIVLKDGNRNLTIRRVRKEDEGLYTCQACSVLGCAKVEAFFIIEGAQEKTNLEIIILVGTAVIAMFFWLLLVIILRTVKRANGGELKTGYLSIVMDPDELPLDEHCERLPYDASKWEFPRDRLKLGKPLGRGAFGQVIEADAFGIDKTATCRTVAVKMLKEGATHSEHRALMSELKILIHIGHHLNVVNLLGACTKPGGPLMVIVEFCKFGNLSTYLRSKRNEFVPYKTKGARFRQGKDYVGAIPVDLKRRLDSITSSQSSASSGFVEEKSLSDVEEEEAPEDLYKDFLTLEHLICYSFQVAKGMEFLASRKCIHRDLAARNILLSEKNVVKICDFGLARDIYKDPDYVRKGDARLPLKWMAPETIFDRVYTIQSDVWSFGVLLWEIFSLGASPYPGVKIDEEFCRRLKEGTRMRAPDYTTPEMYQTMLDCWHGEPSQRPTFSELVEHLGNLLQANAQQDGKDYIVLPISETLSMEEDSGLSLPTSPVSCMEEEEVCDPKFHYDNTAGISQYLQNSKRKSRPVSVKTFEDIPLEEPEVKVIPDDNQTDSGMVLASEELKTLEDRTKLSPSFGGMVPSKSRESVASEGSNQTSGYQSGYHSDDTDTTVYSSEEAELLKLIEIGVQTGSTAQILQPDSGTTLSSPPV

Structure (SMILES)	IC50 [1]	IC50 [2]
COc1cc2c(Nc3ccc(Cl)cc3F)ncnc2cc1OCCOCCNC(=O)C(CCCCNC(=O)CCCCC1SCC2NC(=O)NC21)NC(=O)c1c(F)c(F)c(N=[N+]=[N-])c(F)c1F (stereo unspecified)	7.1 µM	40.3 µM
COc1cc2c(Nc3ccc(Cl)cc3F)ncnc2cc1OCCOCCNC(=O)c1c(F)c(F)c(N=[N+]=[N-])c(F)c1F	< 1 µM	3.2 µM
COc1cc2c(Nc3ccc(Cl)cc3F)ncnc2cc1OCCOCCNC(=O)CCCCC1SCC2NC(=O)NC21 (stereo unspecified)	1.5 µM	1.9 µM
COc1cc2c(Nc3ccc(Cl)cc3F)ncnc2cc1OCCNC(=O)CCCCC1SCC2NC(=O)NC21 (stereo unspecified)	4.8 µM	14.7 µM

Other lines, results leading:

IC50 [1]	IC50 [2]	Structure (SMILES)
1.5 µM		COc1cc2ncnc(Nc3ccc(Cl)cc3F)c2cc1OC
< 1 µM	4.1 µM	COc1cc2c(Nc3ccc(Cl)cc3F)ncnc2cc1OCCNC(=O)c1c(F)c(F)c(N=[N+]=[N-])c(F)c1F
